According to patent US6894061B2, “Substituted dihydrophenanthridinesulfonamides” (Wyeth, priority 2002, dated 2005):
Like-named read-outs stand apart in the source and are kept apart here.

What was measured:
ER/NF-κB = ER/NF-κB luciferase reporter in Ad5-wt-ERα infected HAECT-1 cells; format: cell-based, human; conditions: for IC50: read-out: ER/NFκB IC50; for Emax: read-out: ER/NFκB Efficacy (%)*
Protocol: (§1) After four hours, cells were washed with EBM-BSA and incubated overnight in the same medium. Following overnight incubation, cells were washed with EBM-BSA and infected for 2 hours with 6 mL of a 1:10 dilution of Ad5-3x(NFκB).Luc virus (Adenovirus luciferase expression vector driven by 3 repeats of the MHC NFκb site 5′ to the thymidine kinase promoter) in EBM-BSA. After two hours, cells were washed and incubated at 34° C. for 1 hour. […] Control (no ER infection) cells were processed as above without Ad5-wt-hERα virus infection.
(§2) ERα infected HAECT-1 cells or control cells were thawed, diluted 42× in warm EBM-BSA, plated into 96-well plates at 0.1 mL/well and incubated for 4 hours at 34° C. Test compounds were added to the cells as 2× stocks in EBM-BSA containing 2 ng/mL IL-1β (R&D Systems) and the 96-well plates were returned to the incubator (34° C.). After 15-20 hours, 100 μL aliquots of media were removed from the cells and assayed for IL-6 content using a BioSource human IL-6 ELISA Kit. Cells were subsequently washed with 300 μL of Dulbecco's phosphate buffered saline and lysed in 50 μL of Cell Culture Lysis Reagent (Promega). Luciferase was determined on a Wallac Victor^2 Luminometer (Gaithersburg, Md.) using 10 μL of lysate and mixing with 100 μL of Promega Luciferase Assay reagent. Creatine kinase was determined from the rate of increase in A340 following addition of 100 μL of CK assay reagent (Sigma, cat. No 47-10) to the remainder of the cell lysate.
(§3) For IC50 and EC50 calculations, mean IL-6, luciferase or CK values versus log10 of the compound concentration were fitted to a four parameter logistic equation. The IC50/EC50 value, ‘Hill slope’, upper and lower limits of the curve were iteratively estimated.

creatine kinase = test: Creatine kinase (CK) test procedure in Ad5-wt-ERα infected HAECT-1 cells; format: cell-based, human; conditions: Ad5-wt-ERα infected HAECT-1 cells; for Emax at 10 µM / Creatin Kinase Efficacy (%): @10 μM
Protocol: as §1, §2, §3

[1] = Homo sapiens, HAECT1, read-out: Creatin Kinase Efficacy (%)

Row | SMILES | IC50 (ER/NF-κB; Homo sapiens, HAECT1, IL-1β) | Emax at 10 µM (creatine kinase; [1]) | Emax (ER/NF-κB; Homo sapiens, HAECT1, IL-1β) | also measured
1 | CC1c2ccccc2-c2ccccc2N1S(=O)(=O)c1ccc(O)c(C(F)(F)F)c1 (stereo not shown) [Example 58, 4-[(6-Methylphenanthridin-5(6H)-yl)sulfonyl]-2-(trifluoromethyl)phenol] | > 10000 nM | < 35% | – | melting point: 213 to 215 °C
2 | CC1c2ccccc2-c2ccccc2N1S(=O)(=O)c1ccc(O)c(C(=O)O)c1 (stereo not shown) [Example 24, 2-Hydroxy-5-[(6-methylphenanthridin-5(6H)-yl)sulfonyl]benzoic acid] | – | – | – | melting point: 225 to 230 °C
3 | CCC1c2ccccc2-c2cc(-c3ccccc3O)ccc2N1S(=O)(=O)c1ccc(O)cc1 (stereo not shown) [Example 63, 2-{6-Ethyl-5-[(4-hydroxyphnyl)sulfonyl]-5,6-dihydrphnanthridin-2-yl}ph nol] | – | – | – | ER/NFκB Efficacy (%)* (ER/NF-κB; IL-1β): 89%; IC50 (ER/NF-κB; IL-1β): 335 nM; Creatin Kinase Efficacy (%) (creatine kinase): <35% @10 μM
4 | CCC1c2ccccc2-c2cc(Br)ccc2N1S(=O)(=O)c1ccc(O)cc1 (stereo not shown) [Example 19, 4-[(2-Bromo-6-ethylphenanthridin-5(6H)-yl)sulfonyl]phenol] | 186 nM | < 35% | 80% | –
5 | CCC1c2ccccc2-c2cc(-c3ccc(C(C)=O)s3)ccc2N1S(=O)(=O)c1ccc(O)cc1 (stereo not shown) [Example 76, 1-(5-{6-Ethyl-5-[(4-hydroxyphnyl)sulfonyl]-5,6-dihydrophnanthridin-2-yl}thin-2-yl)ethanone] | – | – | – | ER/NFκB Efficacy (%)* (ER/NF-κB; IL-1β): 67%; IC50 (ER/NF-κB; IL-1β): 1180 nM; Creatin Kinase Efficacy (%) (creatine kinase): <35% @10 μM
6 | CC1c2ccccc2-c2ccccc2N1S(=O)(=O)c1ccc(O)c(C=O)c1 (stereo not shown) [Example 27, 2-Hydroxy-5-[(6-methylphenanthridin-5(6H)-yl)sulfonyl]b nzald hyde] | – | – | – | IC50 (ER/NF-κB; IL-1β): > 10000 nM; Creatin Kinase Efficacy (%) (creatine kinase): <35% @10 μM
7 | CCC1c2ccccc2-c2cc(-c3ccsc3)ccc2N1S(=O)(=O)c1ccc(O)cc1 (stereo not shown) [Example 28, 4-[(6-Ethyl-2-thin-3-ylphnanthridin-5(6H)-yl)sulfonyl]phenol] | – | – | – | ER/NFκB Efficacy (%)* (ER/NF-κB; IL-1β): 98%; IC50 (ER/NF-κB; IL-1β): 76 nM; Creatin Kinase Efficacy (%) (creatine kinase): <35% @10 μM
8 | CCC1c2ccccc2-c2cc(-c3ccccc3C)ccc2N1S(=O)(=O)c1ccc(O)cc1 (stereo not shown) [Example 70, 4-{[6-Ethyl-2-(2-mthylphnyl)phenanthridin-5(6H)-yl]sulfonyl}phenol] | – | – | – | ER/NFκB Efficacy (%)* (ER/NF-κB; IL-1β): 90%; IC50 (ER/NF-κB; IL-1β): 463 nM; Creatin Kinase Efficacy (%) (creatine kinase): <35% @10 μM
9 | CCc1ccc(-c2ccc3c(c2)-c2ccccc2C(CC)N3S(=O)(=O)c2ccc(O)cc2)cc1 (stereo not shown) [Example 75, 4-{[6-Ethyl-2-(4-ethylphenyl)phenanthridin-5(6H)-yl]sulfonyl}phenol] | 3930 nM | < 35% | 116% | –
10 | CC1c2c(O)cccc2-c2ccccc2N1S(=O)(=O)c1ccc(O)cc1 (stereo not shown) [Example 39, 5-[(4-Hydroxyphenyl)sulfonyl]-6-methyl-5,6-dihydrophenanthridin-7-ol] | > 10000 nM | < 35% | – | –
11 | CCC1c2cc(F)ccc2-c2cc(-c3cccnc3)ccc2N1S(=O)(=O)c1ccc(O)cc1 (stereo not shown) [Example 127, 4-[(6-Ethyl-8-fluoro-2-pyridin-3-ylphenanthridin-5(6H)-yl)sulfonyl]phenol] | – | – | – | melting point: 195 to 200 °C
12 | CCC1c2ccccc2-c2ccccc2N1S(=O)(=O)c1ccc(O)cc1 (stereo not shown) [Example 18, 4-[(6-Ethylphenanthridin-5(6H)-yl)sulfonyl]phenol] | 529 nM | < 35% | 76% | –
13 | CCC1c2cc(F)ccc2-c2cc(-c3ccsc3)ccc2N1S(=O)(=O)c1ccc(O)cc1 (stereo not shown) [Example 52, 4-[(6-Ethyl-8-fluoro-2-thien-3-ylphenanthridin-5(6H)-yl)sulfonyl]phenol] | 68 nM | < 35% | 95% | –
14 | CC1c2cc(Cl)ccc2-c2ccccc2N1S(=O)(=O)c1ccc(O)cc1 (stereo not shown) [Example 61, 4-[(8-Chloro-6-methylphenanthridin-5(6H)-yl)sulfonyl]phenol] | – | – | – | melting point: 176 to 178 °C
15 | CCC1c2ccccc2-c2cc(-c3ccc(O)cc3)ccc2N1S(=O)(=O)c1ccc(O)c(C)c1 (stereo not shown) [Example 94, 4-{[6-Ethyl-2-(4-hydroxyphnyl)phenanthridin-5(6H)-yl]sulfnyl}-2-methylph nl] | – | – | – | ER/NFκB Efficacy (%)* (ER/NF-κB; IL-1β): 105%; IC50 (ER/NF-κB; IL-1β): 382 nM; Creatin Kinase Efficacy (%) (creatine kinase): <35% @10 μM
16 | CCC1c2ccccc2-c2cc(-c3ccccc3)ccc2N1S(=O)(=O)c1ccc(O)cc1 (stereo not shown) [Example 69, 4-[(6-Ethyl-2-phnylphenanthridin-5(6H)-yl)sulfonyl]phenol] | – | – | – | ER/NFκB Efficacy (%)* (ER/NF-κB; IL-1β): 90%; IC50 (ER/NF-κB; IL-1β): 235 nM; Creatin Kinase Efficacy (%) (creatine kinase): <35% @10 μM
17 | CCOC(=O)c1cc(S(=O)(=O)N2c3ccccc3-c3ccccc3C2C)ccc1OCC (stereo not shown) [Example 25, Ethyl 2-ethoxy-5-[(6-methylphenanthridin-5(6H)-yl)sulfonyl]benzoate] | – | – | – | melting point: 113 to 115 °C
18 | CCC1c2ccccc2-c2cc(/C=C/c3ccccc3)ccc2N1S(=O)(=O)c1ccc(O)cc1 (stereo not shown) [Example 65, 4-{[6-Ethyl-2-[(E)-2-phenylethenyl]phenanthridin-5(6H)-yl]sulfonyl}phenol] | 241 nM | < 35% | 93% | –
19 | CCC1c2cc(F)ccc2-c2ccccc2N1S(=O)(=O)c1ccc(OC(=O)c2ccccc2)cc1 (stereo not shown) [Example 55, 4-[(6-Ethyl-8-fluorophenanthridin-5(6H)-yl)sulfonyl]phenyl benzoate] | > 10000 nM | – | – | EC50 (creatine kinase; Homo sapiens, HAECT1, read-out: Creatin Kinase EC50): 239 nM; Emax (creatine kinase; [1]): 32%

The next lines start with results.

Row | IC50 (ER/NF-κB; Homo sapiens, HAECT1, IL-1β) | SMILES | Emax at 10 µM (creatine kinase; [1]) | Emax (ER/NF-κB; Homo sapiens, HAECT1, IL-1β) | also measured
20 | 226 nM | CCC1c2ccccc2-c2cc(-c3ccsc3)ccc2N1S(=O)(=O)c1ccc(O)c(C)c1 (stereo not shown) [Example 79, 4-[(6-Ethyl-2-thien-3-ylphenanthridin-5(6H)-yl)sulfonyl]-2-methylphenol] | < 35% | 86% | –
21 | 447 nM | CCC1c2ccccc2-c2cc(-c3cccc(O)c3)ccc2N1S(=O)(=O)c1ccc(O)c(C)c1 (stereo not shown) [Example 84, 4-{[6-Ethyl-2-(3-hydroxyphenyl)phenanthridin-5(6H)-yl]sulfonyl}-2-methylphenol] | < 35% | 80% | –
22 | 52 nM | CCC1c2ccccc2-c2cc(-c3ccc(O)cc3)ccc2N1S(=O)(=O)c1ccc(O)cc1 (stereo not shown) [Example 73, 4-{[6-Ethyl-2-(4-hydroxyphenyl)phenanthridin-5(6H)-yl]sulfonyl}phenol] | < 35% | 56% | –
23 | 771 nM | CCC1c2ccccc2-c2cc(-c3ccccc3O)ccc2N1S(=O)(=O)c1ccc(O)c(C)c1 (stereo not shown) [Example 78, 4-{[6-Ethyl-2-(2-hydroxyphenyl)phenanthridin-5(6H)-yl]sulfonyl}-2-methylphenol] | < 35% | 79% | –
24 | 434 nM | CCC1c2ccccc2-c2cc(-c3ccccc3Cl)ccc2N1S(=O)(=O)c1ccc(O)cc1 (stereo not shown) [Example 74, 4-{[2-(2-Chlorophenyl)-6-ethylphenanthridin-5(6H)-yl]sulfonyl}phenol] | < 35% | 96% | –
25 | > 10000 nM | CCC1c2ccccc2-c2ccccc2N1S(=O)(=O)c1ccc(O)c(C)c1 (stereo not shown) [Example 20, 4-[(6-Ethylphenanthridin-5(6H)-yl)sulfonyl]-2-methylphenol] | < 35% | – | –
26 | 831 nM | CCC1c2ccccc2-c2cc(Br)ccc2N1S(=O)(=O)c1ccc(O)c(C)c1 (stereo not shown) [Example 21, 4-[(2-Bromo-6-ethylphenanthridin-5(6H)-yl)sulfonyl]-2-methylphenol] | < 35% | 85% | –
27 | 2550 nM | CCC1c2ccccc2-c2cc(-c3cc4ccccc4s3)ccc2N1S(=O)(=O)c1ccc(O)c(C)c1 (stereo not shown) [Example 90, 4-{[2-(1-Benzothien-2-yl)-6-ethylphenanthridin-5(6H)-yl]sulfonyl}-2-methylphenol] | < 35% | 108% | –
28 | 234 nM | CCC1c2ccccc2-c2cc(-c3cccc(OC)c3)ccc2N1S(=O)(=O)c1ccc(O)cc1 (stereo not shown) [Example 29, 4-{[6-Ethyl-2-(3-methoxyphenyl)phenanthridin-5(6H)-yl]sulfonyl}phenol] | < 35% | 86% | –
29 | 245 nM | CCC1c2ccccc2-c2cc(-c3cccc(Cl)c3)ccc2N1S(=O)(=O)c1ccc(O)cc1 (stereo not shown) [Example 67, 4-{[2-(3-Chlorophenyl)-6-ethylphenanthridin-5(6H)-yl]sulfonyl}phenol] | < 35% | 79% | –
30 | 678 nM | CCC1c2ccccc2-c2cc(-c3ccccc3Cl)ccc2N1S(=O)(=O)c1ccc(O)c(C)c1 (stereo not shown) [Example 95, 4-{[2-(2-Chlorophenyl)-6-ethylphenanthridin-5(6H)-yl]sulfonyl}-2-methylphenol] | < 35% | 89% | –
